According to patent US20230167073A1 (Teijin Pharma Limited, priority 2020, published 2023):

Target: T1, Human TRPC6 (Homo sapiens, UniProt Q9Y210)
T1 construct: expressed in transfected cells
T1 sequence (Q9Y210 1-931): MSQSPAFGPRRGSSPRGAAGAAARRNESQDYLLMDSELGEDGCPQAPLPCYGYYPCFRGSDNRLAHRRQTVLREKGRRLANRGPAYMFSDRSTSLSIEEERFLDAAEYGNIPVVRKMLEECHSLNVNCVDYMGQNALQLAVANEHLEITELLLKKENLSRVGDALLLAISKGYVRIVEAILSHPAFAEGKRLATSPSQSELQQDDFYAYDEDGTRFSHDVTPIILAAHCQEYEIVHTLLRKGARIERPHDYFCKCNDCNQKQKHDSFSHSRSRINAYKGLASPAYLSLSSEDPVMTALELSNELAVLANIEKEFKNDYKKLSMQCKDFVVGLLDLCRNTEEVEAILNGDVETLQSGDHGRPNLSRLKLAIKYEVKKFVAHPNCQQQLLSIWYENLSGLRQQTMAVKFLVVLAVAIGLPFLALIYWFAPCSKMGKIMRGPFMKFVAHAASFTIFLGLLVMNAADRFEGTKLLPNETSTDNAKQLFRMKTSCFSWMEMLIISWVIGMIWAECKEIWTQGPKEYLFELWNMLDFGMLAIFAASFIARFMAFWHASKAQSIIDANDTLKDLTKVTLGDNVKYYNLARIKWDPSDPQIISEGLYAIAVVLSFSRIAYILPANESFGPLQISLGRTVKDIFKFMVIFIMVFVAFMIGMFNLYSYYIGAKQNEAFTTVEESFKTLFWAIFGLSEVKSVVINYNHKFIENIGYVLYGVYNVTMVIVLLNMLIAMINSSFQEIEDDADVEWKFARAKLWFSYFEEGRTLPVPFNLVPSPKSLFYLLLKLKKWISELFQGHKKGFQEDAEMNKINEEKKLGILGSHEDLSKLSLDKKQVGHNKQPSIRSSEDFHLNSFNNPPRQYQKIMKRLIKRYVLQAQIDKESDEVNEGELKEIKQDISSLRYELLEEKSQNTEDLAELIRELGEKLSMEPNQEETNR
Assay: Evaluation of TRPC6 channel inhibitory activity (1), FLIPR Calcium 5 Assay Kit, OAG stimulation (Compound Nos. 1-1293)
Format: cell-based
Settings: Human TRPC6 stably-expressing cells, OAG 30 μM, FLIPR Calcium 5 Assay Kit; read-out: Inhibitory activity (pIC50 class) (converted)
How it was run: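 Readout is pIC50 from four-parameter logistic fitting of inhibition of the OAG-evoked (30 μM final) fluorescence calcium signal. Human TRPC6 stable cells are dye-loaded with probenecid, and compound is applied 20 min ahead of agonist.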

Structure (SMILES) | IC50
Cc1cnc(-c2cc(Oc3cc(C#N)ccc3-c3ncc(CN)cn3)n(C)n2)s1 [compound 960, 4-[5-(aminomethyl)pyrimidin-2-yl]-3-[2-methyl-5-(5-methyl-1,3-thiazol-2-yl)pyrazol-3-yl]oxybenzonitrile] | 10 to 1000 nM
Cc1nnc(-c2cc(Oc3cc(C#N)ccc3-c3ncc(CN)cn3)n(C)n2)s1 [compound 961, 4-[5-(aminomethyl)pyrimidin-2-yl]-3-[2-methyl-5-(5-methyl-1,3,4-thiadiazol-2-yl)pyrazol-3-yl]oxybenzonitrile] | > 1000 nM
Cc1ncc(-c2cc(Oc3cc(C#N)ccc3-c3ncc(CN)cn3)n(C)n2)s1 [compound 962, 4-[5-(aminomethyl)pyrimidin-2-yl]-3-[2-methyl-5-(2-methyl-1,3-thiazol-5-yl)pyrazol-3-yl]oxybenzonitrile] | 10 to 1000 nM
Cc1scnc1-c1cc(Oc2cc(C#N)ccc2-c2ncc(CN)cn2)n(C)n1 [compound 963, 4-[5-(aminomethyl)pyrimidin-2-yl]-3-[2-methyl-5-(5-methyl-1,3-thiazol-4-yl)pyrazol-3-yl]oxybenzonitrile] | < 10 nM
Cn1nc(C#N)cc1Oc1cc(C#N)ccc1-c1ccc(CCN)cn1 [compound 964, 5-[2-[5-(2-aminoethyl)pyridin-2-yl]-5-cyanophenoxy]-1-methylpyrazole-3-carbonitrile] | 10 to 1000 nM
Cc1nc(Oc2cc(F)ccc2-c2ncc(CCN)cn2)cc(N2CCOCC2)n1 [compound 965, 2-[2-[4-fluoro-2-(2-methyl-6-morpholin-4-ylpyrimidin-4-yl)oxyphenyl]pyrimidin-5-yl]ethanamine] | 10 to 1000 nM
Cc1nn(CC(F)(F)F)cc1Oc1cc(F)ccc1-c1ncc(CCN)cn1 [compound 968, 2-[2-[4-fluoro-2-[3-methyl-1-(2,2,2-trifluoroethyl)pyrazol-4-yl]oxyphenyl]pyrimidin-5-yl]ethanamine] | < 10 nM
Cc1nn(-c2ccccn2)cc1Oc1cc(F)ccc1-c1ncc(CCN)cn1 [compound 969, 2-[2-[4-fluoro-2-(3-methyl-1-pyridin-2-ylpyrazol-4-yl)oxyphenyl]pyrimidin-5-yl]ethanamine] | < 10 nM
Cc1c(Oc2cc(F)ccc2-c2ncc(CCN)cn2)cnn1CC(F)(F)F [compound 970, 2-[2-[4-fluoro-2-[5-methyl-1-(2,2,2-trifluoroethyl)pyrazol-4-yl]oxyphenyl]pyrimidin-5-yl]ethanamine] | > 1000 nM
Cc1c(Oc2cc(F)ccc2-c2ncc(CCN)cn2)cnn1-c1ccccn1 [compound 971, 2-[2-[4-fluoro-2-(5-methyl-1-pyridin-2-ylpyrazol-4-yl)oxyphenyl]pyrimidin-5-yl]ethanamine] | > 1000 nM
CCN(CC)c1cc(Oc2cc(F)ccc2-c2ncc(CCN)cn2)n(C)n1 [compound 972, 5-[2-[5-(2-aminoethyl)pyrimidin-2-yl]-5-fluorophenoxy]-N,N-diethyl-1-methylpyrazole-3-amine] | < 10 nM
Cn1nc(N2CCOCC2)cc1Oc1cc(F)ccc1-c1ncc(CCN)cn1 [compound 973, 2-[2-[4-fluoro-2-(2-methyl-5-morpholin-4-ylpyrazol-3-yl)oxyphenyl]pyrimidin-5-yl]ethanamine] | 10 to 1000 nM
Cn1nc(N2CCOCC2)cc1Oc1cc(F)ccc1-c1ncc(CN)cn1 [compound 974, [2-[4-fluoro-2-(2-methyl-5-morpholin-4-ylpyrazol-3-yl)oxyphenyl]pyrimidin-5-yl]methanamine] | 10 to 1000 nM
Cn1nc(N2CCOCC2)cc1Oc1cc(F)ccc1-c1ccc(CCN)cn1 [compound 975, 2-[6-[4-fluoro-2-(2-methyl-5-morpholin-4-ylpyrazol-3-yl)oxyphenyl]pyridin-3-yl]ethanamine] | < 10 nM
Cn1nc(N2CCOCC2)cc1Oc1cc(F)ccc1-c1ccc(CN)cn1 [compound 976, [6-[4-fluoro-2-(2-methyl-5-morpholin-4-ylpyrazo1-3-yl)oxyphenyl]pyridin-3-yl]methanamine] | 10 to 1000 nM
Cn1nc(-c2ccccn2)cc1Oc1cc(F)ccc1-c1ncc(CCN)cn1 [compound 977, 2-[2-[4-fluoro-2-(2-methyl-5-pyridin-2-ylpyrazol-3-yl)oxyphenyl]pyrimidin-5-yl]ethanamine] | < 10 nM

Structure (SMILES) | IC50
Cc1cc(Oc2cc(F)ccc2-c2ncc(CCN)cn2)cc(N2CCOCC2)n1 [compound 978, 2-[2-[4-fluoro-2-(2-methyl-6-morpholin-4-ylpyridin-4-yl)oxyphenyl]pyrimidin-5-yl]ethanamine] | < 10 nM
Cn1nc(N2CCCC2)cc1Oc1cc(F)ccc1-c1ncc(CCN)cn1 [compound 979, 2-[2-[4-fluoro-2-(2-methyl-5-pyrrolidin-1-ylpyrazol-3-yl)oxyphenyl]pyrimidin-5-yl]ethanamine] | < 10 nM
Cn1nc(N2CCCC2)cc1Oc1cc(F)ccc1-c1ccc(CCN)cn1 [compound 980, 2-[6-[4-fluoro-2-(2-methyl-5-pyrrolidin-1-ylpyrazol-3-yl)oxyphenyl]pyridin-3-yl]ethanamine] | < 10 nM
CC(C)n1cc(Oc2cc(F)ccc2-c2ncc(CCN)cn2)cn1 [compound 981, 2-[2-[4-fluoro-2-(1-propan-2-ylpyrazol-4-yl)oxyphenyl]pyrimidin-5-yl]ethanamine] | 10 to 1000 nM
CC(C)Cn1cc(Oc2cc(F)ccc2-c2ncc(CCN)cn2)cn1 [compound 982, 2-[2-[4-fluoro-2-[1-(2-methylpropyl)pyrazol-4-yl]oxyphenyl]pyrimidin-5-yl]ethanamine] | 10 to 1000 nM
Cc1nn(C(C)C)cc1Oc1cc(F)ccc1-c1ncc(CCN)cn1 [compound 983, 2-[2-[4-fluoro-2-(3-methyl-1-propan-2-ylpyrazol-4-yl)oxyphenyl]pyrimidin-5-yl]ethanamine] | < 10 nM
Cc1c(Oc2cc(F)ccc2-c2ncc(CCN)cn2)cnn1C(C)C [compound 984, 2-[2-[4-fluoro-2-(5-methyl-1-propan-2-ylpyrazol-4-yl)oxyphenyl]pyrimidin-5-yl]ethanamine] | 10 to 1000 nM
Cc1nn(CC(C)(C)C)cc1Oc1cc(F)ccc1-c1ncc(CCN)cn1 [compound 985, 2-[2-[2-[1-(2,2-dimethylpropyl)-3-methylpyrazol-4-yl]oxy-4-fluorophenyl]pyrimidin-5-yl]ethanamine] | < 10 nM
Cc1c(Oc2cc(F)ccc2-c2ncc(CCN)cn2)cnn1CC(C)(C)C [compound 986, 2-[2-[2-[1-(2,2-dimethylpropyl)-5-methylpyrazol-4-yl]oxy-4-fluorophenyl]pyrimidin-5-yl]ethanamine] | 10 to 1000 nM
CN(CC(F)F)c1cc(Oc2cc(F)ccc2-c2ncc(CCN)cn2)n(C)n1 [compound 987, 5-[2-[5-(2-aminoethyl)pyrimidin-2-yl]-5-fluorophenoxy]-N-(2,2-difluoroethyl)-N,1-dimethylpyrazole-3-amine] | < 10 nM
CN(CC(F)F)c1cc(Oc2cc(F)ccc2-c2ccc(CCN)cn2)n(C)n1 [compound 988, 5-[2-[5-(2-aminoethyl)pyridin-2-yl]-5-fluorophenoxy]-N-(2,2-difluoroethyl)-N,1-dimethylpyrazole-3-amine] | < 10 nM
CCN(CC(F)F)c1cc(Oc2cc(F)ccc2-c2ncc(CCN)cn2)n(C)n1 [compound 989, 5-[2-[5-(2-aminoethyl)pyrimidin-2-yl]-5-fluorophenoxy]-N-(2,2-difluoroethyl)-N-ethyl-1-methylpyrazole-3-amine] | < 10 nM
CCN(CC(F)F)c1cc(Oc2cc(F)ccc2-c2ccc(CCN)cn2)n(C)n1 [compound 990, 5-[2-[5-(2-aminoethyl)pyridin-2-yl]-5-fluorophenoxy]-N-(2,2-difluoroethyl)-N-ethyl-1-methylpyrazole-3-amine] | < 10 nM
CCN(CC)c1cc(Oc2cc(F)ccc2-c2ccc(CCN)cn2)n(C)n1 [compound 991, 5-[2-[5-(2-aminoethyl)pyridin-2-yl]-5-fluorophenoxy]-N,N-diethyl-1-methylpyrazole-3-amine] | < 10 nM
CCN(CC)c1cc(Oc2cc(F)ccc2-c2ncc(CN)cn2)n(C)n1 [compound 992, 5-[2-[5-(aminomethyl)pyrimidin-2-yl]-5-fluorophenoxy]-N,N-diethyl-1-methylpyrazole-3-amine] | < 10 nM
CN(CC(F)F)c1cc(Oc2cc(F)ccc2-c2ncc(CN)cn2)n(C)n1 [compound 993, 5-[2-[5-(aminomethyl)pyrimidin-2-yl]-5-fluorophenoxy]-N-(2,2-difluoroethyl)-N,1-dimethylpyrazole-3-amine] | 10 to 1000 nM
